Test results published in US8642766B2, “Synthesis of (+) cortistatin A and related compounds” (priority 2008, dated 2014).

Columns and labels:
HUVECs = assay: Assay to determine activity against HUVECs (carried out by Pfizer, Inc.); format: cell-based, human; conditions: for IC50: synthetic material, tested by Pfizer, Inc.
From the text: [Aoki et al., J. Am. Chem. Soc. 2006, 128:3148-3149]

[1] = tested on: human umbilical vein endothelial cells (HUVECs); conditions: cited from earlier work

SMILES: CN(C)[C@H]1C[C@@]23CC[C@@]4(O2)C(=CC[C@]2(C)[C@@H](c5ccc6ccncc6c5)CC[C@H]24)C=C3[C@@H](O)[C@@H]1O [17-epi-cortistatin A]
- IC50 (HUVECs): > 1000 nM

SMILES: CN(C)[C@H]1C[C@@]23CC[C@@]4(O2)C(=CC[C@]2(C)[C@@H](c5ccc6ccncc6c5)CC[C@H]24)C=C3[C@@H](O)[C@@H]1O [cortistatin A, (+)-cortistatin A]
- IC50 ([1]; natural cortistatin A tested by Kobayashi group, Aoki et al., J. Am. Chem. Soc. 2006, read-out: IC50 against HUVECs, natural cortistatin A): 1.8 nM
- IC50 (testing cells)/IC50 (HUVECs) ([1]; selectivity versus healthy or cancerous cell lines, Aoki et al. 2006): ≥ 3300
- IC50 (HUVECs; Homo sapiens, HUVEC): 2.43 nM

SMILES: CN(C)[C@H]1C[C@@]23CC[C@@]4(O2)C(=CC[C@]2(C)C(c5ccc6ccncc6c5)=CC[C@H]24)C=C3[C@@H](O)[C@@H]1O [Δ^16-cortistatin A]
- IC50 (HUVECs; Homo sapiens, HUVEC): 3.88 nM
- biological activity compared with (+)cortistatin A (HUVECs; statement in words, refers to the HUVEC results discussed below it): substantially the same as that of (+)cortistatin A
